In patent US20110020494A1, “GROWTH MEDIUM FOR LACTIC ACID BACTERIA” (priority 2007, published 2011):

System: mesophilic culture of Lactococcus
Assay: Growth of Lactococcus with formate and purine supplementation: pH of inoculated milk over time
Assay type: cell-based
Settings: milk 1% fat, 32° C., inoculation 0.022%, IMP 10 ppm, NaF 5 ppm
Protocol: In these experiments, the growth of Lactococcus in the presence of supplemented formate and purine was investigated. Equal amounts of milk (pasteurized milk w/1% fat) were added to four 1 liter Pyrex bottles. The bottles were placed in the water bath at 32° C.
All bottles were inoculated with a mesophilic culture of Lactococcus (0.022%). When the milk reached 32° C., three of the four bottles were supplemented with Na formate and/or disodium-5′-inosinate (IMP), as shown below.
The initial pH of the milk was recorded. The pH in the bottles was measured every hour for the first two hours and then every half hour until a pH of around 4.6 was reached.
The pH of each of the bottles, as a function of time, is shown below, and graphed in FIG. 1.

Compound | pH (time 0 hours (initial pH)) | pH (time 1 hour) | pH (time 2 hours) | pH (time 2.6 hours) | pH (time 3 hours) | pH (time 3.5 hours) | pH (time 4 hours) | pH (time 5.1 hours) | pH (time 5.6 hours)
disodium-5′-inosinate [IMP] | 6.54 | 6.48 | 6.27 | 5.98 | 5.73 | 5.42 | 5.17 | 4.6 | 4.5
O=C[O-].[Na+] [NaF, sodium formate] | 6.54 | 6.48 | 6.29 | 6.03 | 5.79 | 5.51 | 5.26 | 4.66 | 4.54
